How the values were obtained:
[1] = Half life in ip dosed mouse; assay type: ADME, organism-based; details: in vivo
HCT-116 = assay: Cytotoxicity against human HCT-116 cells assessed as decrease in cell viability incubated for 48 hrs by SRB assay; assay type: functional, cell-based; details: HCT-116, 48 h
HT-29 = assay: Cytotoxicity against human HT-29 cells assessed as decrease in cell viability incubated for 48 hrs by SRB assay; assay type: functional, cell-based; details: HT-29, 48 h
HCT-15 = assay: Cytotoxicity against human HCT-15 cells assessed as decrease in cell viability incubated for 48 hrs by SRB assay; assay type: functional, cell-based; details: HCT-15, 48 h
SW480 = assay: Cytotoxicity against human SW480 cells assessed as decrease in cell viability incubated for 48 hrs by SRB assay; assay type: functional, cell-based; details: SW480, 48 h
SW-620 = assay: Cytotoxicity against human SW620 cells assessed as decrease in cell viability incubated for 48 hrs by SRB assay; assay type: functional, cell-based; details: SW-620, 48 h
RKO = assay: Cytotoxicity against human RKO cells assessed as decrease in cell viability incubated for 48 hrs by SRB assay; assay type: functional, cell-based

O=c1[nH]cc(F)c(=O)[nH]1 [FLUOROURACIL]
1.36 h: half-life [1]
12 µM: IC50 (HCT-116) | IC50 (HT-29) | IC50 (HCT-15) | IC50 (SW480) | IC50 (SW-620) | IC50 (RKO)

Source: ChEMBL document CHEMBL5390201, “The Natural Alkaloid (-)-N-Hydroxyapiosporamide Suppresses Colorectal Tumor Progression as an NF-κB Pathway Inhibitor by Targeting the TAK1-TRAF6 Complex” (J Nat Prod, 2023)
